# Patent US11254705B2, “Cyclic peptide analogs and conjugates thereof” (Sirenas LLC, priority 2016, dated 2022)
# Tests used:
# [1] = system: BT-474 human mammary gland ductal carcinoma cells; assay: Inhibition of BT-474 cell growth (Cell Titer-Glo, 72 h); type: cell-based; conditions: BT-474 cells, 72 hours of culture, Cell Titer-Glo luminescence
# Method: (§1) BT-474 human mammary gland ductal carcinoma cells were seeded in a clear polystyrene 96-well microculture plate (Corning® Costar® 96-well flat bottom plate, Cat. #3997) in a total volume of 90 μL/well. After 24 hours of incubation in a humidified incubator at 37° C. with 5% CO2 and 95% air, 10 μL of 10×, serially diluted test agents in growth medium were added to each well (10 pt dose response curve, highest concentration 10 μM of test agent). After 72 hours of culture in a humidified incubator at 37° C., in an atmosphere of 5% CO2 and 95% air, the plated cells and Cell Titer-Glo® (Protnega G7571) reagents were brought to room temperature to equilibrate for 30 minutes. 100 μL of Cell Titer-Glo® reagent was added to each well. The plate was shaken for two minutes and then left to equilibrate for ten minutes. The media/Cell Titer-Glo® reagent was transferred to a white polystyrene 96-well microculture plate (Corning® Costar® 96-well flat bottom plate, Cat. #3917) before reading luminescence on a Tecan GENios microplate reader.
# (§2) Percent inhibition of cell growth was calculated relative to untreated control wells. The IC50 value for the test agents was determined using Prism 6.05 by curve-fitting of the data using the following four parameter-logistic equation:
# [formula] where Top is the maximal % of control absorbance, Bottom is the minimal % of control absorbance at the highest agent concentration, Y is the % of control absorbance, X is the agent concentration, IC50 is the concentration of agent that inhibits cell growth by 50% compared to the control cells, and n is the slope of the curve. […]
# HCC1954 cells = assay: Inhibition of HCC1954 cell growth (method analogous to BT-474); type: cell-based; conditions: Homo sapiens
# Method: as §1, §2
# [formula] where Top is the maximal % of control absorbance, Bottom is the minimal % of control absorbance at the highest agent concentration, Y is the % of control absorbance, X is the agent concentration, IC50 is the concentration of agent that inhibits cell growth by 50% compared to the control cells, and n is the slope of the curve.
# Inhibitory response of test compounds against HCC1954 cells was determined using a method analogous to that used for BT-474 cells.
SMILES,IC50 [1] [nM],IC50 (HCC1954 cells) [nM]
"C/C=C(\C)[C@H]1OC(=O)[C@@H](C)NC(=O)[C@H]([C@H](C)CC)NC(=O)CN(C)C(=O)[C@@H](Cc2ccccc2)N(C)C(=O)[C@H](C)NC(=O)[C@@H](CC(C)C)OC(=O)/C(C)=C/C[C@H](OC(=O)NCCCO)[C@@H]1C [Compound 1, (2R,5S,8R,14S,17R,20S,21S,22S,E)-8-benzyl-20-((E)-but-2-en-2-yl)-14-((R)-sec-butyl)-2-isobutyl-5,7,10,17,21,25-hexamethyl-3,6,9,12,15,18,26-heptaoxo-1,19-dioxa-4,7,10,13,16-pentaazacyclohexacos-24-en-22-yl (3-hydroxypropyl)carbamate]",0.0811,0.457
"C/C=C(\C)[C@H]1OC(=O)[C@@H](C)NC(=O)[C@H]([C@H](C)CC)NC(=O)CN(C)C(=O)[C@@H](Cc2ccccc2)N(C)C(=O)[C@H](C)NC(=O)[C@@H](CC(C)C)OC(=O)/C(C)=C/C[C@H](OC(=O)NCCCCO)[C@@H]1C [Compound 2, (2R,5S,8R,14S,17R,20S,21S,22S,E)-8-benzyl-20-((E)-but-2-en-2-yl)-14-((R)-sec-butyl)-2-isobutyl-5,7,10,17,21,25-hexamethyl-3,6,9,12,15,18,26-heptaoxo-1,19-dioxa-4,7,10,13,16-pentaazacyclohexacos-24-en-22-yl (4-hydroxybutyl)carbamate]",3.75,4.95
"C/C=C(\C)[C@H]1OC(=O)[C@@H](C)NC(=O)[C@H]([C@H](C)CC)NC(=O)CN(C)C(=O)[C@@H](Cc2ccccc2)N(C)C(=O)[C@H](C)NC(=O)[C@@H](CC(C)C)OC(=O)/C(C)=C/C[C@H](OC(=O)NCCCCCO)[C@@H]1C [Compound 3, (2R,5S,8R,14S,17R,20S,21S,22S,E)-8-benzyl-20-((E)-but-2-en-2-yl)-14-((R)-sec-butyl)-2-isobutyl-5,7,10,17,21,25-hexamethyl-3,6,9,12,15,18,26-heptaoxo-1,19-dioxa-4,7,10,13,16-pentaazacyclohexacos-24-en-22-yl (5-hydroxypentyl)carbamate]",0.0843,1.41
"C/C=C(\C)[C@H]1OC(=O)[C@@H](C)NC(=O)[C@H](C(C)CC)NC(=O)CN(C)C(=O)[C@@H](Cc2ccccc2)N(C)C(=O)[C@H](C)NC(=O)[C@@H](CC(C)C)OC(=O)/C(C)=C/C[C@H](OC(=O)NCCCCCCO)[C@@H]1C (stereo partly drawn) [Compound 4, (2R,5S,8R,14S,17R,20S,21S,22S,E)-8-benzyl-20-((E)-but-2-en-2-yl)-14-((R)-sec-butyl)-2-isobutyl-5,7,10,17,21,25-hexamethyl-3,6,9,12,15,18,26-heptaoxo-1,19-dioxa-4,7,10,13,16-pentaazacyclohexacos-24-en-22-yl(6-hydroxyhexyl)carbamate]",0.523,3.21
"C/C=C(\C)[C@H]1OC(=O)[C@@H](C)NC(=O)[C@H](C(C)CC)NC(=O)CN(C)C(=O)[C@@H](Cc2ccccc2)N(C)C(=O)[C@H](C)NC(=O)[C@@H](CC(C)C)OC(=O)/C(C)=C/C[C@H](OC(=O)NCCCCCCCO)[C@@H]1C (stereo partly drawn) [Compound 5, (2R,5S,8R,14S,17R,20S,21S,22S,E)-8-benzyl-20-((E)-but-2-en-2-yl)-14-((R)-sec-butyl)-2-isobutyl-5,7,10,17,21,25-hexamethyl-3,6,9,12,15,18,26-heptaoxo-1,19-dioxa-4,7,10,13,16-pentaazacyclohexacos-24-en-22-yl(7-hydroxyheptyl)carbamate]",0.329,1.11
"C/C=C(\C)[C@H]1OC(=O)[C@@H](C)NC(=O)[C@H](C(C)CC)NC(=O)CN(C)C(=O)[C@@H](Cc2ccc(Cl)cc2)N(C)C(=O)[C@H](C)NC(=O)[C@@H](CC(C)C)OC(=O)/C(C)=C/C[C@H](OC(=O)N(C)CCCCCCNC)[C@@H]1C (stereo partly drawn) [Compound 19, (2R,5S,8R,14S,17R,20S,21S,22S,E)-20-((E)-but-2-en-2-yl)-14-((R)-sec-butyl)-8-(4-chlorobenzyl)-2-isobutyl-5,7,10,17,21,25-hexamethyl-3,6,9,12,15,18,26-heptaoxo-1,19-dioxa-4,7,10,13,16-pentaazacyclohexacos-24-en-22-yl methyl (6-(methylamino)hexyl)carbamate]",–,4.16
"C/C=C(\C)[C@H]1OC(=O)[C@@H](C)NC(=O)[C@H]([C@H](C)CC)NC(=O)CN(C)C(=O)[C@@H](Cc2ccc(Cl)cc2)N(C)C(=O)[C@H](C)NC(=O)[C@@H](CC(C)C)OC(=O)/C(C)=C/C[C@H](OC(=O)N(C)CCCCCCCCCCCCNC)[C@@H]1C [Compound 20, (2R,5S,8R,14S,17R,20S,21S,22S,E)-20-((E)-but-2-en-2-yl)-14-((R)-sec-butyl)-8-(4-chlorobenzyl)-2-isobutyl-5,7,10,17,21,25-hexamethyl-3,6,9,12,15,18,26-heptaoxo-1,19-dioxa-4,7,10,13,16-pentaazacyclohexacos-24-en-22-yl methyl(12-(methylamino)dodecyl)carbamate]",–,15.4
"C/C=C(\C)[C@H]1OC(=O)C(C)(C)NC(=O)[C@H]([C@H](C)CC)NC(=O)CN(C)C(=O)[C@@H](Cc2ccc(Cl)cc2)N(C)C(=O)[C@H](C)NC(=O)[C@@H](CC(C)C)OC(=O)/C(C)=C/C[C@H](O)[C@@H]1C [Compound 21, (6S,12R,15S,18R,24S,25S,26S,E)-26-((E)-but-2-en-2-yl)-6-((R)-sec-butyl)-12-(4-chlorobenzyl)-24-hydroxy-18-isobutyl-3,3,10,13,15,21,25-heptamethyl-1,19-dioxa-4,7,10,13,16-pentaazacyclohexacos-21-ene-2,5,8,11,14,17,20-heptaone]",–,0.56
"C/C=C(\C)[C@H]1OC(=O)C(C)(C)NC(=O)[C@H](C(C)CC)NC(=O)CN(C)C(=O)[C@@H](Cc2ccc(Cl)cc2)N(C)C(=O)[C@H](C)NC(=O)[C@@H](CC(C)C)OC(=O)/C(C)=C/C[C@H](OC(=O)NCCCCCO)[C@@H]1C (stereo partly drawn) [Compound 22, (2R,5S,8R,14S,20S,21S,22S,E)-20-((E)-but-2-en-2-yl)-14-((R)-sec-butyl)-8-(4-chlorobenzyl)-2-isobutyl-5,7,10,17,17,21,25-heptamethyl-3,6,9,12,15,18,26-heptaoxo-1,19-dioxa-4,7,10,13,16-pentaazacyclohexacos-24-en-22-yl(5-hydroxypentyl)carbamate]",–,7.26
"C/C=C(\C)[C@H]1OC(=O)C(C)(C)NC(=O)[C@H]([C@H](C)CC)NC(=O)CN(C)C(=O)[C@@H](Cc2ccc(Cl)cc2)N(C)C(=O)[C@H](C)NC(=O)[C@@H](CC(C)C)OC(=O)/C(C)=C/C[C@H](OC(=O)N(C)CCCCCCNC)[C@@H]1C [Compound 23, (2R,5S,8R,14S,20S,21S,22S,E)-20-((E)-but-2-en-2-yl)-14-((R)-sec-butyl)-8-(4-chlorobenzyl)-2-isobutyl-5,7,10,17,17,21,25-heptamethyl-3,6,9,12,15,18,26-heptaoxo-1,19-dioxa-4,7,10,13,16-pentaazacyclohexacos-24-en-22-yl methyl(6-(methylamino)hexyl)carbamate]",–,0.47
"C/C=C(\C)[C@H]1OC(=O)C(C)(C)NC(=O)[C@H]([C@H](C)CC)NC(=O)CN(C)C(=O)[C@@H](Cc2ccc(Cl)cc2)N(C)C(=O)[C@H](C)NC(=O)[C@@H](CC(C)C)OC(=O)/C(C)=C/C[C@H](OC(=O)N(C)CCCCCCN(C)C(C)=O)[C@@H]1C [Compound 24, (2R,5S,8R,14S,20S,21S,22S,E)-20-((E)-but-2-en-2-yl)-14-((R)-sec-butyl)-8-(4-chlorobenzyl)-2-isobutyl-5,7,10,17,17,21,25-heptamethyl-3,6,9,12,15,18,26-heptaoxo-1,19-dioxa-4,7,10,13,16-pentaazacyclohexacos-24-en-22-yl methyl(6-(N-methylacetamido)hexyl)carbamate]",–,2.07
"C/C=C(\C)[C@H]1OC(=O)C(C)(C)NC(=O)[C@H]([C@H](C)CC)NC(=O)CN(C)C(=O)[C@@H](Cc2ccc(Cl)cc2)N(C)C(=O)[C@H](C)NC(=O)[C@@H](CC(C)C)OC(=O)/C(C)=C/C[C@H](OC(=O)N2CCN(CCO)CC2)[C@@H]1C [Compound 26, (2R,5S,8R,14S,20S,21S,22S,E)-20-((E)-but-2-en-2-yl)-14-((R)-sec-butyl)-8-(4-chlorobenzyl)-2-isobutyl-5,7,10,17,17,21,25-heptamethyl-3,6,9,12,15,18,26-heptaoxo-1,19-dioxa-4,7,10,13,16-pentaazacyclohexacos-24-en-22-yl 4-(2-hydroxyethyl)piperazine-1-carboxylate]",–,1.36
"C/C=C(\C)[C@H]1OC(=O)C(C)(C)NC(=O)[C@H]([C@H](C)CC)NC(=O)CN(C)C(=O)[C@@H](Cc2ccc(C#N)cc2)N(C)C(=O)[C@H](C)NC(=O)[C@@H](CC(C)C)OC(=O)/C(C)=C/C[C@H](OC(=O)NCCCCCO)[C@@H]1C [Compound 29, (2R,5S,8R,14S,20S,21S,22S,E)-20-((E)-but-2-en-2-yl)-14-((R)-sec-butyl)-8-(4-cyanobenzyl)-2-isobutyl-5,7,10,17,17,21,25-heptamethyl-3,6,9,12,15,18,26-heptaoxo-1,19-dioxa-4,7,10,13,16-pentaazacyclohexacos-24-en-22-yl (5-hydroxypentyl)carbamate]",–,27.3
